Data taken from ChEMBL document CHEMBL1201862, “PubChem BioAssay data set” (2004).
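Dose response: 5 concentrations. Exposure: 48 h. Format: 96-well plates. Endpoint: linear interpolation; highest concentration if not reached. GI50 = concentration required for 50% inhibition of growth.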 The source made the active and inactive calls. Rule as the data show it: active = GI50 up to about 1.1 µM and inactive = higher.

Legend:
Assay in all cases: inhibition of tumour cell growth, NCI panel, 48 h
KM-20L2 = system: KM-20L2
K562 = system: K562
SW-620 = system: SW-620
HL-60 = system: HL-60
SK-OV-3 = system: SK-OV-3
OVCAR-8 = system: OVCAR-8
SK-MEL-28 = system: SK-MEL-28
SK-MEL-5 = system: SK-MEL-5
HOP-92 = system: HOP-92
Malme-3M = system: Malme-3M
OVCAR-5 = system: OVCAR-5
LXFL 529 = system: LXFL 529
SN12C = system: SN12C
RXF 393 = system: RXF 393
RXF 631 = system: RXF 631
UACC-257 = system: UACC-257
RPMI-8226 = system: RPMI-8226
CAKI-1 = system: CAKI-1
A549 = system: A549
SF-268 = system: SF-268
HT-29 = system: HT-29
SNB-78 = system: SNB-78
NCI-H460 = system: NCI-H460
UO-31 = system: UO-31
HCT-15 = system: HCT-15
UACC-62 = system: UACC-62
DLD-1 = system: DLD-1
SF-295 = system: SF-295
OVCAR-3 = system: OVCAR-3
LOX IMVI = system: LOX IMVI
NCI-H23 = system: NCI-H23
A498 = system: A498
786-0 = system: 786-0
EKVX = system: EKVX
ACHN = system: ACHN
HCC 2998 = system: HCC 2998
NCI-H522 = system: NCI-H522
COLO 205 = system: COLO 205
SNB-75 = system: SNB-75
IGROV-1 = system: IGROV-1
HOP-62 = system: HOP-62
KM12 = system: KM12
OVCAR-4 = system: OVCAR-4
M14 = system: M14
NCI-H226 = system: NCI-H226
TK-10 = system: TK-10
DMS-114 = system: DMS-114
XF498 = system: XF498
SF-539 = system: SF-539
M19-MEL = system: M19-MEL
MOLT-4 = system: MOLT-4
U-251 = system: U-251
CCRF-CEM = system: CCRF-CEM
SK-MEL-2 = system: SK-MEL-2
DMS-273 = system: DMS-273
HOP-18 = system: HOP-18
HCT-116 = system: HCT-116
SNB-19 = system: SNB-19

Measured: GI50

O=C1CCC2(c3ccc(F)cc3)Nc3ccccc3N12 (configuration not stated)
> 100 µM: HCT-15
inactive: KM-20L2 > 100 µM | K562 > 100 µM | SW-620 > 100 µM | HL-60 > 100 µM | SK-OV-3 > 100 µM | OVCAR-8 > 100 µM | SK-MEL-28 > 100 µM | SK-MEL-5 > 100 µM | HOP-92 > 100 µM | Malme-3M > 100 µM | OVCAR-5 > 100 µM | LXFL 529 > 100 µM | SN12C > 100 µM | RXF 393 > 100 µM | RXF 631 > 100 µM | UACC-257 > 100 µM | RPMI-8226 > 100 µM | CAKI-1 > 100 µM | A549 > 100 µM | SF-268 > 100 µM | HT-29 > 100 µM | SNB-78 > 100 µM | NCI-H460 > 100 µM | UO-31 > 100 µM | UACC-62 > 100 µM | DLD-1 > 100 µM | SF-295 > 100 µM | OVCAR-3 > 100 µM | LOX IMVI > 100 µM | NCI-H23 > 100 µM | A498 > 100 µM | 786-0 > 100 µM | EKVX > 100 µM | ACHN > 100 µM | HCC 2998 > 100 µM | NCI-H522 > 100 µM | COLO 205 > 100 µM | SNB-75 63.7 µM | IGROV-1 > 100 µM | HOP-62 > 100 µM | KM12 > 100 µM | OVCAR-4 > 100 µM | M14 > 100 µM | NCI-H226 > 100 µM | TK-10 > 100 µM | DMS-114 > 100 µM | XF498 > 100 µM | SF-539 > 100 µM | M19-MEL > 100 µM | MOLT-4 > 100 µM | U-251 > 100 µM | CCRF-CEM > 100 µM | SK-MEL-2 > 100 µM

Cc1ccc(Cc2c(=O)[nH]nc3ccccc23)cc1
> 100 µM: HCT-15
inactive: KM-20L2 > 100 µM | K562 > 100 µM | SW-620 > 100 µM | DMS-273 > 100 µM | SK-OV-3 > 100 µM | OVCAR-8 > 100 µM | SK-MEL-28 > 100 µM | SK-MEL-5 > 100 µM | HOP-92 89.7 µM | Malme-3M > 100 µM | OVCAR-5 > 100 µM | HOP-18 > 100 µM | SN12C > 100 µM | RXF 631 > 100 µM | UACC-257 > 100 µM | RPMI-8226 > 100 µM | CAKI-1 > 100 µM | A549 > 100 µM | SF-268 > 100 µM | HT-29 > 100 µM | SNB-78 > 100 µM | NCI-H460 > 100 µM | HCT-116 > 100 µM | UO-31 58.3 µM | UACC-62 > 100 µM | DLD-1 > 100 µM | SF-295 89.5 µM | SNB-19 > 100 µM | OVCAR-3 > 100 µM | LOX IMVI > 100 µM | NCI-H23 > 100 µM | A498 > 100 µM | 786-0 > 100 µM | EKVX > 100 µM | ACHN > 100 µM | HCC 2998 > 100 µM | COLO 205 > 100 µM | SNB-75 79.8 µM | IGROV-1 > 100 µM | HOP-62 > 100 µM | KM12 > 100 µM | OVCAR-4 > 100 µM | M14 > 100 µM | NCI-H226 > 100 µM | TK-10 > 100 µM | DMS-114 > 100 µM | XF498 30.2 µM | SF-539 > 100 µM | M19-MEL > 100 µM | MOLT-4 > 100 µM | CCRF-CEM > 100 µM | SK-MEL-2 > 100 µM

O=C1CCC(O)=C1O
> 100 µM: HCT-15
inactive: KM-20L2 > 100 µM | K562 > 100 µM | SW-620 > 100 µM | HL-60 > 100 µM | DMS-273 > 100 µM | SK-OV-3 > 100 µM | OVCAR-8 > 100 µM | SK-MEL-28 > 100 µM | SK-MEL-5 > 100 µM | HOP-92 > 100 µM | Malme-3M > 100 µM | OVCAR-5 > 100 µM | LXFL 529 > 100 µM | HOP-18 > 100 µM | SN12C > 100 µM | RXF 393 > 100 µM | RXF 631 > 100 µM | RPMI-8226 > 100 µM | CAKI-1 > 100 µM | A549 > 100 µM | SF-268 > 100 µM | HT-29 > 100 µM | NCI-H460 > 100 µM | HCT-116 > 100 µM | UACC-62 > 100 µM | DLD-1 > 100 µM | SF-295 > 100 µM | SNB-19 > 100 µM | OVCAR-3 > 100 µM | LOX IMVI > 100 µM | NCI-H23 > 100 µM | A498 > 100 µM | 786-0 > 100 µM | EKVX > 100 µM | ACHN > 100 µM | HCC 2998 > 100 µM | NCI-H522 > 100 µM | COLO 205 > 100 µM | SNB-75 > 100 µM | IGROV-1 > 100 µM | HOP-62 > 100 µM | KM12 > 100 µM | OVCAR-4 > 100 µM | M14 > 100 µM | NCI-H226 > 100 µM | TK-10 > 100 µM | DMS-114 > 100 µM | XF498 > 100 µM | SF-539 > 100 µM | M19-MEL > 100 µM | MOLT-4 > 100 µM | U-251 > 100 µM | CCRF-CEM > 100 µM | SK-MEL-2 > 100 µM
